Source: article PMC12389018, “Eugenia uniflora L.: Analysis of Chemical Profile and Cytotoxic Action on Tumor (HeLa) and Non-Tumor Cells (NIH/3T3)” (Pharmaceuticals, 2025)
Converted amounts (≈) assume the structure as drawn.

What was measured:
[1] = tested on: liver (Hep-G2) cancer cells; details: in vitro; cited from earlier work
[2] = tested on: human cervical (HeLa) cancer cells; details: in vitro; cited from earlier work
[3] = tested on: SiHa cells, a cervical squamous cell carcinoma line; design: method as in PMID 37935292; details: cited from earlier work
[4] = tested on: non-small-cell lung cancer cells A549; design: method as in doi:10.3390/scipharm91030042; details: cited from earlier work
[5] = tested on: breast cancer cells MDA-MB-468; design: method as in doi:10.3390/scipharm91030042; details: cited from earlier work
[6] = tested on: non-small-cell lung cancer cells NCI-H358; design: method as in doi:10.3390/scipharm91030042; details: cited from earlier work
[7] = tested on: breast cancer cells MDA-MB-231; design: method as in doi:10.3390/scipharm91030042; details: cited from earlier work
[8] = tested on: HeLa (cervical cancer) cells; assay: MTT cell viability assay in HeLa cells; type: cell-based, human
Experimental: (§1) The HeLa (cervical cancer) and NIH/3T3 (murine fibroblast) cells were seeded in 96-well plates at a density of 3 × 10^4 cells/well in DMEM (Dulbecco’s Modified Eagle Medium; Gibco, Thermo Fisher, Paisley, UK), supplemented with 10% fetal bovine serum (FBS; Cultilab®, São Paulo, Brazil) and 1% penicillin/streptomycin (Pen/Strep—Cultilab®, Campinas, Brazil). The cells were incubated at 37 °C in a humidified atmosphere containing 5% CO2 for 24 h. After incubation, the cells were treated with EUD and EUA extracts at concentrations ranging from 3.5 µg/mL to 250 µg/mL and incubated for an additional 48 h. The cell lines were kindly donated by Cemib (Multidisciplinary Center for Biological Research in the Laboratory Animal Science Area, Campinas, Brazil)—Unicamp/SP.
(§2) One row of wells was treated only with the vehicle (culture medium) to serve as the negative control, representing 100% cell viability. Doxorubicin (Libbs®, São Paulo, Brazil) and carboplatin (Blau Farmacêutica®, São Paulo, Brazil) were used as the positive controls.
Following treatment, the medium was removed, and 100 µL/well of MTT reagent (5 mg/mL; 3-[4,5-dimethylthiazol-2-yl]-2,5-diphenyltetrazolium bromide; Invitrogen, Thermo Fisher, Waltham, MA, USA) was added. The plates were incubated for 4 h at 37 °C. After incubation, the resulting formazan crystals formed in viable cells were solubilized by adding 100 µL/well of DMSO (dimethyl sulfoxide; Labsynth, São Paulo, Brazil). Absorbance was measured at 570 nm using an Epoch-Biotek ELISA microplate spectrophotometer (BioTek Instruments, Winooski, VT, USA).
Statistical analysis was performed using GraphPad Prism 8.4.6 (GraphPad Software, Inc., Boston, MA, USA) via one-way ANOVA followed by Tukey’s post hoc test. Differences were considered statistically significant at p < 0.05. All the experiments were conducted in triplicate.

[9] = tested on: NIH/3T3 (murine fibroblast) cells; assay: MTT cell viability assay in NIH/3T3 cells; type: cell-based
Experimental: as §1, §2
Following treatment, the medium was removed, and 100 µL/well of MTT reagent (5 mg/mL; 3-[4,5-dimethylthiazol-2-yl]-2,5-diphenyltetrazolium bromide; Invitrogen, Thermo Fisher, Waltham, MA, USA) was added. […] Absorbance was measured at 570 nm using an Epoch-Biotek ELISA microplate spectrophotometer (BioTek Instruments, Winooski, VT, USA). […]

[10] = tested on: HeLa cells vs NIH/3T3 cells; assay: Selectivity index (IC50 NIH/3T3 divided by IC50 HeLa); type: cell-based; details: IC50 NIH/3T3 / IC50 HeLa; SI ≥ 2 considered selective
Experimental: The selectivity index (SI) was calculated by dividing the IC50 value of NIH/3T3 cells by the IC50 of HeLa cells. Samples with SI ≥ 2 were considered selectively cytotoxic to cancer cells.

HeLa cells [11] = assay: Cell cycle analysis by flow cytometry with PI staining; type: cell-based, human; details: treated at IC50, 48 h
Experimental: The HeLa cells (2 × 10^5 cells/well) were seeded in 6-well plates and incubated for 24 h. The cells were then treated with the EUD and EUA extracts and doxorubicin at their respective IC50 concentrations. The vehicle-treated cells served as the negative control. After 48 h, cells were harvested with trypsin, centrifuged, fixed in 70% ethanol, and stained with propidium iodide (PI) (Sigma-Aldrich®). The samples were incubated at 37 °C for 30 min in the dark and analyzed using a BD Accuri™ C6 Plus flow cytometer. Histograms were processed with the Cell Quest Pro software (version 5.1). Data was analyzed using two-way ANOVA in GraphPad Prism 8.4.3, with significance at p < 0.05.

HeLa cells [12] = assay: Cell migration assay (scratch assay); type: cell-based, human; details: EUD 7.5 μg/mL, EUA 10 μg/mL, doxorubicin 0.375 μg/mL
Experimental: The HeLa cells (70,000–80,000 cells/well) were seeded in 24-well plates with DMEM supplemented with 10% FBS and 1% Pen/Strep and incubated at 37 °C with 5% CO2 until 80% confluence. The medium was replaced with DMEM containing 0.2% FBS, and after 24 h, a scratch was made in the cell monolayer using a 1000 µL pipette tip. The cells were washed with sterile PBS, and they were treated with doxorubicin (positive control) and EUD and EUA extracts at ¼ of their IC50 values: 7.5 µg/mL (EUD), 10 µg/mL (EUA), and 0.375 µg/mL (doxorubicin).
Images were captured at 0 h (T0), 12 h (T1), 18 h (T2), and 24 h (T3) using an EVOS XL Core Imaging System microscope (10× objective). Scratch area percentages were analyzed using the ImageJ software 1.54g/Java 1.8.0_421 (32-bit), and statistical analysis was performed using one-way ANOVA with GraphPad Prism 8.4.3. All the experiments were conducted in triplicate.

In the case of unifloratrin, the “cytotoxicity against Hep-G2 cancer cells” value [1] is listed as “considerable cytotoxicity” and the “cytotoxicity against HeLa cancer cells” value [2] is listed as “considerable cytotoxicity”.
For `O=c1oc2c(O)c(O)cc3c(=O)oc4c(O)c(O)cc1c4c23` [ellagic acid, Ellagic acid], the “effect on proliferation of SiHa cells” value [3] is given as “inhibit cell proliferation”, the “effect on proliferation of A549 cells” value [4] is given as “inhibited the proliferation” and the “effect on proliferation of MDA-MB-468 cells” value [5] is given as “inhibited the proliferation”. The “effect on proliferation of NCI-H358 cells” value [6] was “inhibited the proliferation” and the “effect on proliferation of MDA-MB-231 cells” value [7] was “inhibited the proliferation”.
In the case of `COc1cccc2c1C(=O)c1c(O)c3c(c(O)c1C2=O)C[C@@](O)(C(=O)CO)C[C@@H]3O[C@H]1C[C@H](N)[C@H](O)[C@H](C)O1` [Doxorubicin], the IC50 ([8]; Homo sapiens, HeLa, 48 h treatment, read-out: IC50 Tumor Cells HeLa) is reported as 1.59 µg/mL (≈ 2.93 µM), the IC50 ([9]; Mus musculus, NIH3T3, 48 h treatment, read-out: IC50 Non-Tumor cells NIH/3T3) is reported as 2.32 µg/mL (≈ 4.27 µM) and the “Selectivity Index (SI)” value [10] is reported as 1.5. The “cells in SubG0 phase” value (HeLa cells [11]; negative control 2.97%) was 44.20%, the “cells in G2/M phase” value (HeLa cells [11]; negative control 7.97%) was 0.245% and the “cells in S phase” value (HeLa cells [11]; negative control 30.55%) was 12.1%. For the same molecule, the “cells in G1/G0 phase” value (HeLa cells [11]; negative control 56.75%) was 42.75%, the “free area (scratch) at T1” value (HeLa cells [12]; 12 h) was 39.51% and the “free area (scratch) at T2” value (HeLa cells [12]; 18 h) was 36.49%. The “free area (scratch) at T3” value (HeLa cells [12]; 24 h) was 32.17% and the “inhibition of cell migration compared to the negative control” value (HeLa cells [12]) was “did not significantly inhibit tumor cell migration”.
In the case of `N.N.O=C([O-])C1(C(=O)[O-])CCC1.[Pt+2]` [Carboplatin], the “IC50 Tumor Cells HeLa” value ([8]; 48 h treatment) is reported as 52.40 µg/mL, the “concentrations with statistically significant reduction of HeLa cell viability vs negative control” value ([8]; p < 0.05) is reported as greater than 25 µg/mL and the “IC50 Non-Tumor cells NIH/3T3” value ([9]; 48 h treatment) is reported as 38.32 µg/mL. For the same molecule, the “Selectivity Index (SI)” value [10] was 0.73.
In the case of myricitrin, the “cytotoxicity against Hep-G2 cancer cells” value [1] is listed as “considerable cytotoxicity” and the “cytotoxicity against HeLa cancer cells” value [2] is listed as “considerable cytotoxicity”.
